# Test results taken from patent US9447015B1, “(S)-2′-vinyl-abscisic acid derivatives” (Valent BioSciences Corporation, priority 2015, dated 2016).
# Test system: Arabidopsis thaliana seed germination
# Assay: Arabidopsis seed germination assay (promotion of germination in the presence of (S)-ABA)
# Format: in vivo
# Set-up: key to Rating: Arabidopsis seed germination promotion activity: −: Seeds germinated at approximately the same time as those treated with 0.3 ppm of (S)-ABA alone (i.e., treatment with the 2′-vinyl-(S)-ABA derivative showed no measurable effect in this assay configuration).; +: Seeds germinated 1 to 4 days earlier than those treated with 0.3 ppm of (S)-ABA alone.; ++: Seeds germinated 5 to 7 days earlier than those treated with 0.3 ppm of (S)-ABA alone.; +++: Seeds germinated 8 to 10 days earlier than those treated with 0.3 ppm of (S)-ABA alone
# Conditions: 30 ppm compound in the presence of 0.3 ppm (S)-ABA; scored on day 14
# Procedure: To determine whether the (S)-ABA derivatives of the present invention were effective antagonists, germination assays were performed with the model plant Arabidopsis thaliana. If the compounds are found to be antagonists, they may be useful to counter any undesirable side effects of (S)-ABA.
# Arabidopsis seed was sterilized by shaking for five minutes in 200 proof ethanol, followed by shaking for five minutes in a 10% bleach solution. The seeds were then washed five times in sterile, distilled, de-ionized water and suspended in 0.1% phytoagar. The tubes containing the seeds were wrapped in aluminum foil and stratified at 4° C. for two days.
# All compounds were tested at a concentration of 30 ppm in the presence or absence of 0.3 ppm (S)-ABA, in 24-well plates. For each compound, a 1000 ppm stock solution was prepared in distilled, deionized water containing 5% DMSO. The stock test solution (15 μL) was added to each well, plus or minus 1.5 μL of 100 ppm (S)-ABA in 5% DMSO. Appropriate amounts of distilled, de-ionized water was added to equalize volumes, and 450 μL of ½×Murashige and Skoog media containing 1.2% Bactoagar was then added to each well (final DMSO concentration was 0.5%). When the media solidified, ten to 15 sterile stratified Arabidopsis seeds were distributed into each well using a repeat pipettor. The plates were sealed with surgical tape and placed in a growth chamber running diurnal cycles of 12 hours of light at 24° C. and 12 hours of darkness at 19° C. The plates were scanned on days 3 through 14, and scored on day 14. The (S)-2′-vinyl-substituted ABA derivatives were scored on ability to promote germination in the presence of (S)-ABA. The results are summarized below in “Table 1: Arabidopsis seed germination promotion activity of 2′-vinyl-(S)-ABA derivatives.”
row,SMILES,Rating: Arabidopsis seed germination promotion activity
1,"CC1=CC(=O)CC(C)(C)[C@@]1(O)/C=C/C(C)=C/C(=O)O [(S)-ABA, (S)-abscisic acid, reference compound]",−
2,CC(=C/C(=O)O)/C=C/[C@@]1(O)C(/C=C/c2cc(C(F)(F)F)ccc2Cl)=CC(=O)CC1(C)C [Compound 1],++ (Seeds germinated 5 to 7 days earlier than those treated with 0.3 ppm of (S)-ABA alone.)
3,CC(=C/C(=O)O)/C=C/[C@@]1(O)C(/C=C/c2ccc(F)cc2)=CC(=O)CC1(C)C [Compound 2],+ (Seeds germinated 1 to 4 days earlier than those treated with 0.3 ppm of (S)-ABA alone.)
4,CC(=C/C(=O)O)/C=C/[C@@]1(O)C(/C=C/c2ccc(C#N)cc2)=CC(=O)CC1(C)C [Compound 3],++ (Seeds germinated 5 to 7 days earlier than those treated with 0.3 ppm of (S)-ABA alone.)
5,CC(=C/C(=O)O)/C=C/[C@@]1(O)C(/C=C/c2ccc(C)cc2)=CC(=O)CC1(C)C [Compound 4],+++ (Seeds germinated 8 to 10 days earlier than those treated with 0.3 ppm of (S)-ABA alone.)
6,CC(=C/C(=O)O)/C=C/[C@@]1(O)C(/C=C/c2c(Cl)cccc2Cl)=CC(=O)CC1(C)C [Compound 5],−
7,CC(=C/C(=O)O)/C=C/[C@@]1(O)C(/C=C/c2c(F)cccc2F)=CC(=O)CC1(C)C [Compound 6],−
8,CC(=C/C(=O)O)/C=C/[C@@]1(O)C(/C=C/c2c(F)cccc2Cl)=CC(=O)CC1(C)C [Compound 7],++ (Seeds germinated 5 to 7 days earlier than those treated with 0.3 ppm of (S)-ABA alone.)
9,CC(=C/C(=O)O)/C=C/[C@@]1(O)C(/C=C/c2ccc(F)c(Cl)c2)=CC(=O)CC1(C)C [Compound 8],+++ (Seeds germinated 8 to 10 days earlier than those treated with 0.3 ppm of (S)-ABA alone.)
10,COC(=O)/C=C(C)\C=C\[C@@]1(O)C(/C=C/c2ccc(Cl)c(F)c2)CC(=O)CC1(C)C (stereo partly shown) [Compound 9],++ (Seeds germinated 5 to 7 days earlier than those treated with 0.3 ppm of (S)-ABA alone.)
11,COC(=O)/C=C(C)\C=C\[C@@]1(O)C(/C=C/c2ccccc2F)=CC(=O)CC1(C)C [Compound 10],−
12,COC(=O)/C=C(C)\C=C\[C@@]1(O)C(/C=C/c2ccc(OC)c(C#N)c2)=CC(=O)CC1(C)C [Compound 11],−
13,COC(=O)/C=C(C)\C=C\[C@@]1(O)C(/C=C/c2ccccc2Cl)=CC(=O)CC1(C)C [Compound 12],+ (Seeds germinated 1 to 4 days earlier than those treated with 0.3 ppm of (S)-ABA alone.)
14,COC(=O)/C=C(C)\C=C\[C@@]1(O)C(/C=C/c2cccc(C(F)(F)F)c2Cl)=CC(=O)CC1(C)C [Compound 13],+ (Seeds germinated 1 to 4 days earlier than those treated with 0.3 ppm of (S)-ABA alone.)
15,COC(=O)/C=C(C)\C=C\[C@@]1(O)C(/C=C/c2ccc(Cl)c(C(F)(F)F)c2)=CC(=O)CC1(C)C [Compound 14],++ (Seeds germinated 5 to 7 days earlier than those treated with 0.3 ppm of (S)-ABA alone.)
16,COC(=O)/C=C(C)\C=C\[C@@]1(O)C(/C=C/c2ccc(Cl)cc2Cl)=CC(=O)CC1(C)C [Compound 15],++ (Seeds germinated 5 to 7 days earlier than those treated with 0.3 ppm of (S)-ABA alone.)
17,CC(=C/C(=O)O)/C=C/[C@@]1(O)C(/C=C/c2cc(Cl)cc(Cl)c2)=CC(=O)CC1(C)C [Compound 16],++ (Seeds germinated 5 to 7 days earlier than those treated with 0.3 ppm of (S)-ABA alone.)
18,CC(=C/C(=O)O)/C=C/[C@@]1(O)C(/C=C/c2cccc(Cl)c2)=CC(=O)CC1(C)C [Compound 17],−
19,CC(=C/C(=O)O)/C=C/[C@@]1(O)C(/C=C/c2ccc(Cl)cc2)=CC(=O)CC1(C)C [Compound 18],+++ (Seeds germinated 8 to 10 days earlier than those treated with 0.3 ppm of (S)-ABA alone.)

row,SMILES,Rating: Arabidopsis seed germination promotion activity
1,CC(=C/C(=O)O)/C=C/[C@@]1(O)C(/C=C/c2ccc(Cl)c(Cl)c2)=CC(=O)CC1(C)C [Compound 19],++ (Seeds germinated 5 to 7 days earlier than those treated with 0.3 ppm of (S)-ABA alone.)
2,CC(=C/C(=O)O)/C=C/[C@@]1(O)C(/C=C/c2cccc(F)c2)=CC(=O)CC1(C)C [Compound 20],++ (Seeds germinated 5 to 7 days earlier than those treated with 0.3 ppm of (S)-ABA alone.)
3,CC(=C/C(=O)O)/C=C/[C@@]1(O)C(/C=C/c2cccc(C(F)(F)F)c2)=CC(=O)CC1(C)C [Compound 21],+ (Seeds germinated 1 to 4 days earlier than those treated with 0.3 ppm of (S)-ABA alone.)
4,CC(=C/C(=O)O)/C=C/[C@@]1(O)C(/C=C/c2ccc(F)cc2F)=CC(=O)CC1(C)C [Compound 22],++ (Seeds germinated 5 to 7 days earlier than those treated with 0.3 ppm of (S)-ABA alone.)
5,CC(=C/C(=O)O)/C=C/[C@@]1(O)C(/C=C/c2cc(F)cc(F)c2)=CC(=O)CC1(C)C [Compound 24],++ (Seeds germinated 5 to 7 days earlier than those treated with 0.3 ppm of (S)-ABA alone.)
6,CC(=C/C(=O)O)/C=C/[C@@]1(O)C(/C=C/c2ccccc2C(F)(F)F)=CC(=O)CC1(C)C [Compound 25],++ (Seeds germinated 5 to 7 days earlier than those treated with 0.3 ppm of (S)-ABA alone.)
7,CC(=C/C(=O)O)/C=C/[C@@]1(O)C(/C=C/c2ccc(C(F)(F)F)cc2)=CC(=O)CC1(C)C [Compound 26],+++ (Seeds germinated 8 to 10 days earlier than those treated with 0.3 ppm of (S)-ABA alone.)
8,CC(=C/C(=O)O)/C=C/[C@@]1(O)C(/C=C/c2cc(C(F)(F)F)ccc2F)=CC(=O)CC1(C)C [Compound 27],++ (Seeds germinated 5 to 7 days earlier than those treated with 0.3 ppm of (S)-ABA alone.)
9,COc1ccc(C(F)(F)F)cc1/C=C/C1=CC(=O)CC(C)(C)[C@@]1(O)/C=C/C(C)=C\C(=O)O [Compound 28],++ (Seeds germinated 5 to 7 days earlier than those treated with 0.3 ppm of (S)-ABA alone.)
10,CC(=C/C(=O)O)/C=C/[C@@]1(O)C(/C=C/c2cc(F)cc(C(F)(F)F)c2)=CC(=O)CC1(C)C [Compound 29],++ (Seeds germinated 5 to 7 days earlier than those treated with 0.3 ppm of (S)-ABA alone.)
11,CC(=C/C(=O)O)/C=C/[C@@]1(O)C(/C=C/c2ccc(C(F)(F)F)cc2F)=CC(=O)CC1(C)C [Compound 30],++ (Seeds germinated 5 to 7 days earlier than those treated with 0.3 ppm of (S)-ABA alone.)
12,CC(=C/C(=O)O)/C=C/[C@@]1(O)C(/C=C/c2cccc(C(F)(F)F)c2F)=CC(=O)CC1(C)C [Compound 31],+++ (Seeds germinated 8 to 10 days earlier than those treated with 0.3 ppm of (S)-ABA alone.)
13,CC(=C/C(=O)O)/C=C/[C@@]1(O)C(/C=C/c2cccc(C#N)c2)=CC(=O)CC1(C)C [Compound 32],−
14,CC(=C/C(=O)O)/C=C/[C@@]1(O)C(/C=C/c2ccco2)=CC(=O)CC1(C)C [Compound 33],−
15,CC(=C/C(=O)O)/C=C/[C@@]1(O)C(/C=C/c2nccs2)=CC(=O)CC1(C)C [Compound 34],−
16,CC(=C/C(=O)O)/C=C/[C@@]1(O)C(/C=C/c2cncs2)=CC(=O)CC1(C)C [Compound 35],−
17,CC(=C/C(=O)O)/C=C/[C@@]1(O)C(/C=C/c2ccccn2)=CC(=O)CC1(C)C [Compound 36],−
18,CC(=C/C(=O)O)/C=C/[C@@]1(O)C(/C=C/c2cccnc2)=CC(=O)CC1(C)C [Compound 37],−
19,CC(=C/C(=O)O)/C=C/[C@@]1(O)C(/C=C/c2ccncc2)=CC(=O)CC1(C)C [Compound 38],−

# Same assay, conditions: seed germination assay, 30 ppm with 0.3 ppm (S)-ABA
row,SMILES,antagonist nature compared to (S)-ABA
1,CC(=C/C(=O)O)/C=C/[C@@]1(O)C(/C=C/c2ccc(C)cc2)=CC(=O)CC1(C)C [Compound 4],antagonists of (S)-ABA
2,CC(=C/C(=O)O)/C=C/[C@@]1(O)C(/C=C/c2ccc(F)c(Cl)c2)=CC(=O)CC1(C)C [Compound 8],antagonists of (S)-ABA
3,CC(=C/C(=O)O)/C=C/[C@@]1(O)C(/C=C/c2ccc(Cl)cc2)=CC(=O)CC1(C)C [Compound 18],antagonists of (S)-ABA
4,CC(=C/C(=O)O)/C=C/[C@@]1(O)C(/C=C/c2ccc(C(F)(F)F)cc2)=CC(=O)CC1(C)C [Compound 26],antagonists of (S)-ABA
5,CC(=C/C(=O)O)/C=C/[C@@]1(O)C(/C=C/c2cccc(C(F)(F)F)c2F)=CC(=O)CC1(C)C [Compound 31],antagonists of (S)-ABA
